From US9757464B2, “Pharmaceutical compositions of dextran polymer derivatives” (Bend Research, Inc., priority 2009, dated 2017)

Tests used:
[1] = Syringe dissolution test (in vitro dissolution performance); assay type: physicochemical; conditions: pH 7.4 buffer; for Concentration: 50 μg/mL dosed
Procedure: This solution was adjusted to pH 7.42 by adding sufficient 0.1 N HCl. […] After adding the dispersion and the buffer to the syringe, the syringe was periodically inverted to mix the components in the syringe. The syringe was fitted with a 0.45 μm Supor PES syringe filter (manufacturer, city, state). After 5 minutes, 1 mL of fluid was pushed through the filter into a 2-mL centrifuge tube. A 0.5-mL aliquot of methanol was then added to the centrifuge tube, which was then inverted to mix the contents in the tube, followed by centrifugation at 13,000 rpm for 1 minute. The supernatant was transferred to another centrifuge tube. This procedure was repeated for all timepoints. Samples were frozen in liquid nitrogen and place on a lyophilizer for 3 days to remove all liquids.

[2] = Tg of amorphous active agent by DSC; assay type: physicochemical

Concentration ([1]; 0 min) [ng/mL] | Concentration ([1]; 5 min) [ng/mL] | Concentration ([1]; 15 min) [ng/mL] | Concentration ([1]; 30 min) [ng/mL] | Concentration ([1]; 90 min) [ng/mL] | Concentration ([1]; 180 min) [ng/mL] | Cmax ([1]; syringe dissolution test) [ng/mL] | Tg of amorphous active agent [2] [°C] | Structure (SMILES)
0 | 250 | 300 | 100 | 240 | 370 | 370 |  | CCC(=O)O[C@]1(C(=O)SCF)[C@H](C)C[C@H]2[C@@H]3C[C@H](F)C4=CC(=O)C=C[C@]4(C)[C@@]3(F)[C@@H](O)C[C@@]21C [Control 1]
 |  |  |  |  |  |  | 84 | CCC(=O)O[C@]1(C(=O)SCF)[C@H](C)C[C@H]2[C@@H]3C[C@H](F)C4=CC(=O)C=C[C@]4(C)[C@@]3(F)[C@@H](O)C[C@@]21C [Active Agent 1, S-(fluoromethyl) 6α,9-difluoro-11β,17-dihydroxy-16α-methyl-3-oxoandrosta-1,4-diene-17β-carbothioate, 17-propionate]
